Data as given in patent US20070015813A1, “Treatment of protein folding disorders” (QUEEN'S UNIVERSITY AT KINGSTON, priority 2005, published 2007).

Key:
tau441 = target: T1, tau441 (Homo sapiens, UniProt P10636); test: Kinetic Thioflavin S (ThS) assay of tau441 aggregation; assay type: biochemical; conditions: for tau aggregation in the absence of heparin inducer: heparin omitted
T1 construct: (expression construct); host or cells: E. coli BL21 D3
Procedure: The tau441 expression construct [L Buee et al. (2000). Brain Research Reviews 33:95-130] was purchased (Bioclon Inc., San Diego, Calif.) already transformed in BL21 D3 bacterial cells (Novagen/EMD Biosciences) for protein expression. Cells were grown and induced with IPTG according to Novagen's protocol. To lyse cells, Cellytic B reagent (Sigma) was used with lysozyme protease inhibitors (Sigma) and benzonase (Novagen/EMD Biosciences), according to manufacturer's methods. Lysate was cleared by centrifugation for 20 min at 10,000 RPM (SS34 rotor, Sorvall RC2b centrifuge) at 4° C. Protein was purified from the soluble fraction. Once purified, tau441 was stored at −78° C. as frozen aliquots (8.3 mg/mL, 60 μL) in Tris-HCl (50 mM, pH 7.4) until used.
Frozen aliquots of tau441 (8.3 mg/mL, 60 μL) in Tris-HCl (50 mM, pH 7.4) were allowed to thaw at room temperature (RT) before being diluted with Tris-HCl (2.64 mL, 50 mM, pH 7.4) containing dithiothreitol (DTT, 1 mM) to prevent disulfide bonds and NaN3 (50 μM) to prevent bacterial growth. After allowing to stand at RT for 1 h, Thioflavin S (ThS) was added (2.5 μL, 10.8 mM), followed by the aggregation inducer heparin (20 μL, 1.08 g/mL).
Aliquots (200 μL) of Aβ^1-40, Aβ^1-42, tau441 or α-synuclein with ThT or ThS were added to wells of a black polystyrene 96-well plate, followed by 2 μL of a compound in DMSO (various concentrations), or DMSO alone (controls). For α-synuclein, sodium dodecyl sulfate solution (2.0 μL, 30 mM) was also added to each well to induce aggregation. Incubations were performed in triplicate and were taken to contain 20 μM Aβ^1-40 or Aβ^1-42, 6 μM tau441 or 4 μM α-synuclein. Plates were covered with clear polystyrene lids and incubated at 37° C. in a GENios microplate reader obtained from Tecan Group Limited, Mannedorf, Zurich. For Aβ^1-40, tau441 and α-synuclein, fluorescence readings (λex=450 nm, λem=480 nm) were taken every 15 min., after first shaking at high intensity for 15 sec. and allowing to settle for 10 sec. before each reading. For Aβ^1-42, readings were taken every 5 min.
Aggregation conditions: tau441 at a concentration of either 10 μM (A) or 4 μM (B,C,D,E) was incubated in covered black 96-well polystyrene microplates alone or with 100 (A) or 50 μM compound (B,C,D,E), 5 μM ThS, pH 7.4, Tris-HCl (50 mM) containing NaN3 (50 μM), and either 1% MeOH (A) or 1% DMSO (B,C,D,E). Plates were heated at 37° C. in a Tecan GENios microplate reader. All incubations performed in triplicate, except for compound 0c in (A), which had n=1. Fluorescence readings: fluorescence measured every 15 min. (λex=450 nm, λem=480 nm) after shaking for 15 sec. and pausing 10 sec. before taking measurement. Values are the mean of three replicates. Error bars, sometimes not visible due to small size, represent standard deviation of the mean.
Aggregation conditions: tau441 at a concentration of 4 μM was incubated in covered black 96-well polystyrene microplates alone or with 50 μM (A,B,C) or 1 mM compound (D), 5 μM ThS, pH 7.4, Tris-HCl (50 mM) containing NaN3 (50 μM), and 1% DMSO. Plates were heated at 37° C. in a Tecan GENios microplate reader. All incubations performed in triplicate. Fluorescence readings: fluorescence measured every 15 min. (λex=450 nm, λem=480 nm) after shaking for 15 sec. and pausing 10 sec. before taking measurement. Values are the mean of three replicates. Error bars, sometimes not visible due to small size, represent standard deviation of the mean.

Aβ1-40 = target: T2, Aβ1-40 (Homo sapiens, UniProt P05067); test: Aβ1-40 disaggregation assay; assay type: biochemical; conditions: compound added after incubating at 37° C. for 46 hrs., ThT fluorescence
T2 construct: Aβ^1-40 (AnaSpec, San Jose, Calif., lots 14212, 34862 and 34889); purchased AnaSpec, San Jose, Calif
T2 sequence (P05067 672-711 limits assumed): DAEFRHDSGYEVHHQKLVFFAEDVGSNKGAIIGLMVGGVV
Procedure: Aβ^1-40 was allowed to aggregate under conditions described in Thioflavin T Aggregation Assay except that no DMSO was added initially. After 46 hrs., compound in DMSO or vehicle was added (2 μL) and the fluorescence measured every 15 min. as detailed above. […] FIG. 3 depicts dose-response curves for inhibition of Aβ^1-40 aggregation by 0j and positive control, morin. FIG. 4 depicts the inhibition of Aβ^1-40 aggregation by 0c in “seeded” ThT assay. FIG. 5 depicts disaggregation of Aβ^1-40 by 0c and positive control, morin. After incubating at 37° C. for 46 hrs. 0c, morin or vehicle were added as DMSO solutions (1:100) and the fluorescence measured every 15 min.

T1 sequence (P10636 1-441 isoform P10636-8): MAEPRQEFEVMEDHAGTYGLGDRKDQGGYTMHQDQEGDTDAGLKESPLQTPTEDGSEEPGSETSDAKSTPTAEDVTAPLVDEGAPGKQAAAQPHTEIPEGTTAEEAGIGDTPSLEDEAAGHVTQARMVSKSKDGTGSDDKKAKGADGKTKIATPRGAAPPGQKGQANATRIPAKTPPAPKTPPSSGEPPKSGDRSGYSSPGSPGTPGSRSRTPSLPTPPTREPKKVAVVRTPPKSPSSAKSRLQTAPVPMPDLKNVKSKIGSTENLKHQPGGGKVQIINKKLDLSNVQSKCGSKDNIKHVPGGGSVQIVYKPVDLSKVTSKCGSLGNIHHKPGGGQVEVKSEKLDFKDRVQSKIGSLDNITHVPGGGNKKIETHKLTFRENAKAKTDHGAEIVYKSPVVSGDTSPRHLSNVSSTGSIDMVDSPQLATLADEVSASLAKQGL

tau aggregation in the absence of heparin inducer (tau441) | disaggregation of Aβ1-40 (Aβ1-40) | effect on tau fibrillization (ThS fluorescence) (tau441; tau441 4 or 10 μM, 50 to 100 μM compound, 5 μM ThS, heparin inducer, pH 7.4, 37° C.) | Compound
inhibited tau aggregation | disaggregation |  | O=C(O)c1ccc2[nH]cc(-c3c[nH]c4ccc(Br)cc34)c2c1 [0c, 3-(5-bromo-indol-3-yl)-indole-5-carboxylic Acid]
inhibited tau aggregation | disaggregation | inhibition of tau fibrillization | O=c1c(O)c(-c2ccc(O)cc2O)oc2cc(O)cc(O)c12 [morin]
